Ten molecules from patent publication US20090246198A1, “MAPK/ERK KINASE INHIBITORS AND METHODS OF USE THEREOF” (TAKEDA PHARMACEUTICAL COMPANY LIMITED, priority 2008, published 2009) can be followed below.

T1 sequence (Q02750 with tags, fused parts or gaps DEL33-52/S218E/S222D): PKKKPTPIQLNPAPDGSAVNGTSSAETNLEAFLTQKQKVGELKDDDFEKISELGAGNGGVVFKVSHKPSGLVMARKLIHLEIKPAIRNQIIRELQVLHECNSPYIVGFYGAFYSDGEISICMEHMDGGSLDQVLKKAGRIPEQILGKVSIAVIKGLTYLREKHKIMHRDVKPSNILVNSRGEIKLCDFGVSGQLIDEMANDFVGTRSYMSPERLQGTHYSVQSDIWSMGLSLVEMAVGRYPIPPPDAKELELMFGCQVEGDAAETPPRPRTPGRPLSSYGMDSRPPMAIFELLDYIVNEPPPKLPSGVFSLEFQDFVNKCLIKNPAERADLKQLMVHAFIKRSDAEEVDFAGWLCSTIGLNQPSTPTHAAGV

The assay has as its target T1, MEK1 (Homo sapiens, UniProt Q02750, DEL33-52/S218E/S222D).
T1 construct: 6-histidine tag (N); made in house; host or cells: MEK1: baculovirus / Spodoptera frugiperda Sf9; ERK1: E. coli
The assay is described as follows: MEK1 inhibition, fluorescence polarization (IMAP) assay with ERK1 and FI-Erktide. The settings on record: 1 nM MEK1, 25 nM ERK1, 400 μM ATP, 22 min at room temperature; read-out: pIC50 (nM); IC50 of Exemplified Compounds against MEK1 (converted). Type of assay: biochemical. On the procedure:
[…] […] […] SEQ ID NO: 2 is the DNA sequence that was used to encode SEQ ID NO: 1.
The inhibitory properties of compounds relative to MEK1 or MEK2 may be determined using a black 384-well-plate format under the following reaction conditions: 50 mM HEPES pH 7.3, 10 mM NaCl, 10 mM MgCl2, 0.01% Brij35, 1 nM MEK1 or 4 nM MEK2, 25 nM ERK1, 400 μM ATP, 500 nM IPTTPITTYFFFK-5FAM-COOH (FI-Erktide), and 1% DMSO. Reaction product is determined quantitatively by fluorescent polarization using progressive IMAP beads from Molecular Devices.
The assay reaction may be initiated as follows: 2 μl of the mixture of 1.5 μM FI-Erktide and 75 nM ERK with 2 μl of inhibitor (2 fold serial dilutions for 11 data points for each inhibitor) containing 3% DMSO were added to each well of the plate, followed by the addition of 2 μl of the mixture of 3 nM MEK1 or 12 nM MEK2and 1200 μM ATP to initiate the reaction (final enzyme concentration was 1 nM for MEK1 or 4 nM for MEK2). The reaction mixture may then be incubated at room temperature for 22 min, and quenched and developed by addition of 20 μl of 1:200 dilution of progressive IMAP beads (Molecular Devices) in 80% buffer A, 20% buffer B and 0.003% Tween 20. Fluorescence polarization of the resulting reaction mixtures may be measured after a 1 hour incubation at room temperature.
IC50 values may be calculated by non-linear curve fitting of the compound concentrations and fluorescence polarization signal to the standard IC50 equation.
On the technique in general: Polarisation of emitted light reports the rotation of a fluorescent probe.
`Cn1c(=O)cc(Nc2ccc(Br)cc2F)c2c(=O)n(CC(O)CO)ccc21` (racemic) [Example 2, 4-(4-bromo-2-fluorophenylamino)-6-(2,3-dihydroxypropyl)-1-methyl-1,6-naphthyridine-2,5(1H,6H)-dione]: the IC50 was under 100 nM.
Turning to `Cn1c(=O)cc(Nc2ccc(I)cc2F)c2c(=O)n(C[C@@H](O)CO)ccc21` [Example 1R, (R)-6-(2,3-dihydroxypropyl)-4-(2-fluoro-4-iodophenylamino)-1-methyl-1,6-naphthyridine-2,5(1H,6H)-dione], the IC50 is under 100 nM.
As for `Cn1c(=O)cc(Nc2ccc(I)cc2F)c2c(=O)n(C[C@H](O)CO)ccc21` [Example 1S, (S)-6-(2,3-dihydroxypropyl)-4-(2-fluoro-4-iodophenylamino)-1-methyl-1,6-naphthyridine-2,5(1H,6H)-dione], the figure is under 100 nM; as for `Cn1c(=O)cc(Nc2ccc(Br)cc2F)c2c(=O)n(C[C@@H](O)CO)ccc21` [Example 2R, (R)-4-(4-bromo-2-fluorophenylamino)-6-(2,3-dihydroxypropyl)-1-methyl-1,6-naphthyridine-2,5(1H,6H)-dione], at least 100 nM; as for `Cn1c(=O)cc(Nc2ccc(Br)cc2F)c2c(=O)n(C[C@H](O)CO)ccc21` [Example 2S, (S)-4-(4-bromo-2-fluorophenylamino)-6-(2,3-dihydroxypropyl)-1-methyl-1,6-naphthyridine-2,5(1H,6H)-dione], under 100 nM.
`Cn1c(=O)c(F)c(Nc2ccc(I)cc2F)c2c(=O)n(C[C@@H](O)CO)ccc21` [Example 3R, (R)-6-(2,3-dihydroxypropyl)-3-fluoro-4-(2-fluoro-4-iodophenylamino)-1-methyl-1,6-naphthyridine-2,5(1H,6H)-dione]: the IC50 was under 100 nM.
On to `Cn1c(=O)c(F)c(Nc2ccc(I)cc2F)c2c(=O)n(C[C@H](O)CO)ccc21` [Example 3S, (S)-6-(2,3-dihydroxypropyl)-3-fluoro-4-(2-fluoro-4-iodophenylamino)-1-methyl-1,6-naphthyridine-2,5(1H,6H)-dione], for which the IC50 is under 100 nM.
In the case of `Cn1c(=O)c(F)c(Nc2ccc(Br)cc2F)c2c(=O)n(C[C@@H](O)CO)ccc21` [Example 4, (R)-4-(4-bromo-2-fluorophenylamino)-6-(2,3-dihydroxypropyl)-3-fluoro-1-methyl-1,6-naphthyridine-2,5(1H,6H)-dione], the IC50 was under 100 nM.
`C#Cc1ccc(Nc2c(F)c(=O)n(C)c3ccn(C[C@@H](O)CO)c(=O)c23)c(F)c1` [Example 5, (R)-6-(2,3-dihydroxypropyl)-4-(4-ethynyl-2-fluorophenylamino)-3-fluoro-1-methyl-1,6-naphthyridine-2,5(1H,6H)-dione]: the IC50 is under 100 nM.
As to `Cn1c(=O)cc(Nc2ccc(C3CC3)cc2F)c2c(=O)n(C[C@@H](O)CO)ccc21` [Example 6, (R)-4-(4-cyclopropyl-2-fluorophenylamino)-6-(2,3-dihydroxypropyl)-1-methyl-1,6-naphthyridine-2,5(1H,6H)-dione], the IC50 was at least 100 nM.
